pIC50: −log10 of the molar value.
Key:
ITK = target: T1, ITK (Homo sapiens, UniProt Q08881); experiment: ITK inhibitor binding potency (LanthaScreen competitive binding assay); conditions: TR-FRET competitive binding, 10 nM ITK, 50 nM kinase tracer-236; pre-incubation condition not given; read-out: ITK Inhibition IC50
T1 sequence (Q08881 1-620): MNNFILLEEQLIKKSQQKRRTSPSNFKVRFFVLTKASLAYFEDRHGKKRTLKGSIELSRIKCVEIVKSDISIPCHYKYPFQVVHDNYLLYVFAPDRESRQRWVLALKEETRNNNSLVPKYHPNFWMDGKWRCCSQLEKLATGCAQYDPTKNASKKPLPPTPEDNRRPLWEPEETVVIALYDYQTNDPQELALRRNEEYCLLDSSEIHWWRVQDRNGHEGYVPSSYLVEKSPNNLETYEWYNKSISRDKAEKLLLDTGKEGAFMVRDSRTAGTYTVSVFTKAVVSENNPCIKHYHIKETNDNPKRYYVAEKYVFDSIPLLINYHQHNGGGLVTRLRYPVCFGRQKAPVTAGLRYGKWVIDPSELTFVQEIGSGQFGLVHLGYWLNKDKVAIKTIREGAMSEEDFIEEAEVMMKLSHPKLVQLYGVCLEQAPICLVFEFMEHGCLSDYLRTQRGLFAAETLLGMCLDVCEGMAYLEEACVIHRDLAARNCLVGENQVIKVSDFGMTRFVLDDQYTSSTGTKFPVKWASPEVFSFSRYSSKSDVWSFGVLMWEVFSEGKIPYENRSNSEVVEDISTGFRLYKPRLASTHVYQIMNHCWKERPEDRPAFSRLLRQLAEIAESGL
From the text: The ability of candidate compounds to interact with ITK is quantitated by a competitive binding assay using the LanthaScreen technology developed by Life Technologies. This assay is based on the binding of a proprietary, Alexa Fluor™ 647-labeled, ATP-competitive kinase inhibitor (kinase tracer-236) to the ITK expression construct in the presence of a Europium-conjugated antibody, resulting in a FRET (fluorescence resonance energy transfer) signal. Displacement of the kinase tracer by compound results in a lower emission ratio upon excitation of the Europium chelate. Candidate compounds are designed as potential irreversible inhibitors of ITK, capable of ligating to an active site cysteine residue resulting in time dependent covalent binding. The time dependent nature of irreversible inhibition is investigated by performing the binding assay with and without a pre-incubation of compound and ITK. […] The inhibitory potency of candidate compounds is measured in 20 mM HEPES pH 7.5, 10 mM MgCl2, 0.01% BSA, 0.0005% Tween-20, and 2% DMSO in the presence of 10 nM ITK, 2 nM Eu-anti-GST antibody, and 50 nM kinase tracer-236 using a 384-well plate format. Background signal is defined in the absence of ITK and uninhibited signal is defined in the presence of vehicle (2% DMSO) alone. Compounds were evaluated in an 11 point dose-response ranging from 20 uM to 0.34 nM. The binding assays are performed under two preincubation conditions to evaluate time dependence of inhibition. For the pre-incubation assay, ITK and Eu-anti-GST antibody are pre-incubated with compound or vehicle for two hours prior to the addition of kinase tracer. The non-preincubated assay is run under conditions where ITK and Eu-anti-GST antibody are added to a mixture of compound and kinase tracer. IC50 values of compounds are determined using a 4 parameter logistical fit of emission ratio as a function of the concentration of compound.

[1] = tested on: ITK phosphorylation of its substrate, PLCγ1, at Y783; experiment: ITK target modulation assay (phospho-Y783 PLCγ1 immunoblot in Jurkat T cells); assay type: cell-based; conditions: Homo sapiens, Jurkat, 2 h, 2 hours compound, CD3/CD28 Dynabeads stimulation 100 sec, anti-phospho-Y783 PLCγ1 immunoblot, read-out: PLC-γ Inhibition IC50
Description: Target modulation was based upon the ability of a compound to inhibit ITK phosphorylation of its substrate, PLCγ1, at […]. Human Jurkat T cells were placed in snap-cap polypropylene tubes at 4 million per tube in 800 μL medium (RPMI1640 with 10% heat inactivated serum and […] 2-mercaptoethanol and supplemented with glutamine/penicillin/streptomycin). Compounds were added as 100 μL of 10× working stock solutions in medium with 1% DMSO (or medium with 1% DMSO for controls) and placed in a 37° C. incubator for 2 hours. Stimulation was carried out using CD3/CD28 Dynabeads to activate the T cell receptor and mimic antigen presenting cells. Beads were added for 100 sec at a ratio of 1 bead per cell, in 100 μL medium (or medium alone for unstimulated control). Starting at 70 sec, cells and beads were pelleted in a microfuge for 15 sec, the supernatant aspirated, and 50 μL lysis buffer was added per tube and mixed with the pellet at the 100 sec time point. Tubes were placed on a rotator for 30 min at 4° C., and cell debris was pelleted in a microfuge. Supernatant was mixed 1:1 with 2× Sample Buffer and subjected to SDS-polyacrylamide gel electrophoresis. After transfer to nitrocellulose, immunoblotting was done with anti-phospho-[…] PLCγ1 antibody. Immunoblots were visualized with ECL using horseradish peroxidase conjugated secondary antibody.

SMILES	pIC50 (ITK)	pIC50 [1]
C=CC(=O)Nc1cncc(-c2cnc3[nH]cc(-c4ccnc(C#N)c4)c3c2)c1 [Example 34, N-(5-(3-(2-cyano-pyridin-4-yl)-1H-pyrrolo[2,3-b]-pyridin-5-yl)-pyridin-3-yl)-acrylamide]	≥ 7.00	≥ 6.00
C=CC(=O)Nc1cc(-c2cnc3[nH]cc(-c4cccc(C#N)c4)c3c2)cc(C(F)(F)F)c1 [Example 7, N-(3-(3-(3-cyano-phenyl)-1H-pyrrolo[2,3-b]-pyridin-5-yl)-5-(trifluoromethyl)-phenyl)acrylamide]	≥ 6.00	≥ 6.00
CN(C)C/C=C/C(=O)Nc1cc(-c2cnc3[nH]cc(-c4cccc(C#N)c4)c3c2)cc(C(F)(F)F)c1 [Example 1, (E)-N-(3-(3-(3-Cyanophenyl)-1H-pyrrolo[2,3-b]pyridin-5-yl)-5-(trifluoromethyl)phenyl)-4-(dimethylamino)but-2-enamide]	≥ 7.00	≥ 6.00
CNc1nccc(-c2c[nH]c3ncc(-c4cccc(NC(=O)/C=C/CN(C)C)c4)cc23)n1 [Example 27, (E)-4-(dimethyl-amino)-N-(3-(3-(2-(methylamino)-pyrimidin-4-yl)-1H-pyrrolo[2,3-b]pyridin-5-yl)phenyl)but-2-enamide]	≥ 7.00	5.30 to 6.00
C=CC(=O)Nc1cc(-c2cnc3[nH]cc(-c4ccnc(NC)n4)c3c2)cc(C(F)(F)F)c1 [Example 3, N-(3-(3-(2-(Methylamino)pyrimidin-4-yl)-1H-pyrrolo[2,3-b]pyridin-5-yl)-5-(trifluoromethyl)phenyl)acrylamide]	≥ 7.00	≥ 6.00
CN(C)C/C=C/C(=O)Nc1cc(-c2cnc3[nH]cc(-c4ccnc(F)c4)c3c2)cc(C(F)(F)F)c1 [Example 32, (E)-4-(dimethyl-amino)-N-(3-(3-(2-fluoropyridin-4-yl)-1H-pyrrolo-[2,3-b]pyridin-5-yl)-5-(trifluoro-methyl)phenyl)-but-2-enamide]	≥ 7.00	≥ 6.00
C=CC(=O)Nc1cc(-c2cnc3[nH]cc(-c4cccc(C#N)c4)c3c2)cnc1OC1CCOC1 (centres unmarked) [Example 5, N-(5-(3-(3-Cyanophenyl)-1H-pyrrolo[2,3-b]pyridin-5-yl)-2-((tetrahydrofuran-3-yl)oxy)pyridin-3-yl)acrylamide]	≥ 7.00	5.30 to 6.00
C=CC(=O)Nc1cc(OC)cc(-c2cnc3[nH]cc(-c4ccnc5[nH]ccc45)c3c2)c1 [Example 15, N-(3-(1H,1′H-[3,4′-bipyrrolo-[2,3-b]pyridin]-5-yl)-5-methoxy-phenyl)acrylamide]	≥ 7.00	≥ 6.00
C=CC(=O)Nc1cc(-c2cnc3[nH]cc(-c4cccc(C#N)c4)c3c2)cc(-c2cnn(C)c2)c1 [Example 18, N-(3-(3-(3-cyano-phenyl)-1H-pyrrolo[2,3-b]-pyridin-5-yl)-5-(1-methyl-1H-pyrazol-4-yl)-phenyl)acrylamide]	≥ 7.00	≥ 6.00
COc1cc(NC(=O)/C=C/CN(C)C)cc(-c2cnc3[nH]cc(-c4ccnc(C#N)c4)c3c2)c1 [Example 39, (E)-N-(3-(3-(2-cyanopyridin-4-yl)-1H-pyrrolo-[2,3-b]pyridin-5-yl)-5-methoxy-phenyl)-4-(dimethylamino)-but-2-enamide]	≥ 7.00	≥ 6.00
C=CC(=O)Nc1cc(OC)cc(-c2cnc3[nH]cc(-c4ccnc(C)c4)c3c2)c1 [Example 28, N-(3-methoxy-5-(3-(2-methyl-pyridin-4-yl)-1H-pyrrolo[2,3-b]-pyridin-5-yl)-phenyl)acrylamide]	≥ 7.00	≥ 6.00
C=CC(=O)Nc1cccc(-c2cnc3[nH]cc(-c4cncc(NC)c4)c3c2)c1 [Example 24, N-(3-(3-(5-(methylamino)-pyridin-3-yl)-1H-pyrrolo[2,3-b]-pyridin-5-yl)-phenyl)acrylamide]	≥ 7.00	≥ 6.00
COc1cc(NC(=O)/C=C/CN(C)C)cc(-c2cnc3[nH]cc(-c4ccnc(C)c4)c3c2)c1 [Example 37]	≥ 7.00	≥ 6.00
C=CC(=O)Nc1cc(-c2cnc3[nH]cc(-c4ccnc5[nH]ccc45)c3c2)cc(C(F)(F)F)c1 [Example 25, N-(3-(1H,1′H-[3,4′-bipyrrolo-[2,3-b]pyridin]-5-yl)-5-(trifluoro-methyl)phenyl)-acrylamide]	≥ 6.00	≥ 6.00

The next lines start with the values.

pIC50 (ITK)	pIC50 [1]	SMILES
≥ 7.00	≥ 6.00	CN(C)C/C=C/C(=O)Nc1cc(-c2cnc3[nH]cc(-c4ccnc(C#N)c4)c3c2)cc(C(F)(F)F)c1 [Example 40, (E)-N-(3-(3-(2-cyanopyridin-4-yl)-1H-pyrrolo-[2,3-b]pyridin-5-yl)-5-(trifluoro-methyl)phenyl)-4-(dimethyl-amino)but-2-enamide]
≥ 7.00	≥ 6.00	C=CC(=O)Nc1cc(OC)cc(-c2cnc3[nH]cc(-c4ccnc(NC)n4)c3c2)c1 [Example 41, N-(3-methoxy-5-(3-(2-(methyl-amino)pyrimidin-4-yl)-1H-pyrrolo-[2,3-b]pyridin-5-yl)phenyl)acryl-amide]
≥ 7.00	< 5.30	CN(C)C/C=C/C(=O)Nc1cncc(-c2cnc3[nH]cc(-c4ccncn4)c3c2)c1 [Example 57, (E)-4-(dimethyl-amino)-N-(5-(3-(pyrimidin-4-yl)-1H-pyrrolo[2,3-b]pyridin-5-yl)-pyridin-3-yl)but-2-enamide]
≥ 7.00	5.30 to 6.00	CNc1nccc(-c2c[nH]c3ncc(-c4cc(NC(=O)/C=C/CN(C)C)cc(OC)c4)cc23)n1 [Example 46, (E)-4-(dimethyl-amino)-N-(3-methoxy-5-(3-(2-(methylamino)-pyrimidin-4-yl)-1H-pyrrolo[2,3-b]-pyridin-5-yl)-phenyl)but-2-enamide]
≥ 6.00	< 5.30	C=CC(=O)Nc1cc(-c2cnc3[nH]cc(-c4cccc(C)c4)c3c2)cc(C(F)(F)F)c1 [Example 59, N-(3-(3-(m-tolyl)-1H-pyrrolo[2,3-b]-pyridin-5-yl)-5-(trifluoromethyl)-phenyl)acrylamide]
≥ 7.00	≥ 6.00	Cc1cc(-c2c[nH]c3ncc(-c4cncc(NC(=O)/C=C/CN(C)C)c4)cc23)ccn1 [Example 42, (E)-4-(dimethyl-amino)-N-(5-(3-(2-methylpyridin-4-yl)-1H-pyrrolo-[2,3-b]pyridin-5-yl)pyridin-3-yl)-but-2-enamide]
≥ 7.00	≥ 6.00	COc1cc(-c2c[nH]c3ncc(-c4cncc(NC(=O)/C=C/CN(C)C)c4)cc23)ccn1 [Example 71, (E)-4-(dimethyl-amino)-N-(5-(3-(2-methoxypyridin-4-yl)-1H-pyrrolo[2,3-b]pyridin-5-yl)-pyridin-3-yl)but-2-enamide]
≥ 7.00	≥ 6.00	COc1cc(-c2cnc3[nH]cc(-c4cccc(C#N)c4)c3c2)cc(N(C)C(=O)/C=C/CN(C)C)c1 [Example 64]
